Measured values published in PMC3362725, “An open-label, phase 1 study evaluating safety, tolerability, and pharmacokinetics of linifanib (ABT-869) in Japanese patients with solid tumors” (Cancer Chemotherapy and Pharmacology, 2012).
Values joined by “and” are separate entries in the source; they are usually repeats but may differ in a detail not shown here. Identical values can stand only once. Like-named read-outs stand apart in the source and are kept apart here.

Legend:
[1] = Pharmacokinetics of oral linifanib in plasma and urine, non-compartmental analysis, phase 1 study; assay type: in vivo, human (Japanese patients with solid tumors); details: for DN AUC24 / DN C max: dose-normalized; for AUC: read-out: AUC24
Method: Pharmacokinetic sampling occurred pre-dose and 0.5, 1, 2, 3, 4, 6, 8, and 24 h after single-dose linifanib on Cycle (C) 1D1, and pre-dose and 0.5, 1, 2, 3, 4, 6, and 8 h after multiple once-daily doses on C1D15. Urine was collected for 24-h after the C1D15 dose. Linifanib and its metabolite concentrations in plasma and urine were determined using a validated method based on triple quadruple tandem mass spectrometry with a lower limit of quantification of 1.0 ng/mL.
Pharmacokinetic parameter (defined in Table 3) concentrations were determined by non-compartmental analysis using WinNonlin Professional v.5.2 (Pharsight Corp., Cary, NC). […] Additional samples were collected at C3D1 (pre-dose) and every second cycle until study completion or until C15D1. Concentrations for samples at C3D1 and subsequent samples, and data from C1D1 to C1D15 were included in the nonlinear mixed effects models to explore covariates such as age, body weight, and gender (data not shown). Following single-dose linifanib at 0.25 mg/kg, a post hoc analysis compared the pharmacokinetics between the Japanese patients in the current study and non-Japanese patients in two phase 1 studies: Caucasian patients receiving […] linifanib (Abbott, unpublished) and the non-Japanese segment of Asian patients receiving 0.10–0.30 mg/kg linifanib.

solid tumors = assay: Tumor response per RECIST (CT or MRI), phase 1 study; assay type: in vivo, human (Japanese patients with solid tumors)
Method: Baseline evaluations included physical examination, body weight, vital signs, 12-lead electrocardiogram, ECOG PS assessment, pregnancy test, laboratory tests, and multiple-gated acquisition scan/echocardiogram. Tumor response and/or disease progression was assessed by computerized tomography (CT) scan or magnetic resonance imaging (MRI) per RECIST [20] at screening and on Day (D) 1 of every second cycle prior to the subsequent treatment period, until tumor progression or until final visit. Complete response and partial response (PR) were defined according to RECIST [20]; objective response rate (ORR) was defined as the proportion of patients with best response of PR or CR among the study population. Safety assessments included laboratory test results and adverse events (AEs), which were graded according to CTCAE v3 [18] and coded by medical dictionary of regulatory activities (MedDRA) 1.0.

HT1080 fibrosarcoma = test system: HT1080 fibrosarcoma; set-up: method as in PMID 16648571; details: predicted based on preclinical murine HT1080 fibrosarcoma model; cited from earlier work
[2] = 0.05 mg/kg once daily, multiple dose (C1D15), mean ± SD, N 3
[3] = 0.05 mg/kg oral, single dose (C1D1), mean ± SD, N 3
[4] = 0.10 mg/kg once daily, multiple dose (C1D15), mean ± SD, N 5
[5] = 0.10 mg/kg oral, single dose (C1D1), mean ± SD, N 6
[6] = 0.20 mg/kg once daily, multiple dose (C1D15), mean ± SD, N 3
[7] = 0.20 mg/kg oral, single dose (C1D1), mean ± SD, N 3
[8] = 0.25 mg/kg once daily, multiple dose (C1D15), mean ± SD, N 5
[9] = 0.25 mg/kg oral, single dose (C1D1), mean ± SD, N 6
[10] = human, plasma, 0.1 mg/kg, 0.10 mg/kg oral, single dose (C1D1), mean ± SD, N 6
[11] = human, plasma, 0.2 mg/kg, 0.20 mg/kg oral, single dose (C1D1), mean ± SD, N 3
[12] = human, plasma, 0.05 mg/kg oral, single dose (C1D1), mean ± SD, N 3
[13] = human, plasma, 0.25 mg/kg oral, single dose (C1D1), mean ± SD, N 6

With `Cc1ccc(F)c(NC(=O)Nc2ccc(-c3cccc4[nH]nc(N)c34)cc2)c1` [linifanib, N-(4-(3-amino-1H-indazol-4-yl)phenyl)-N’-(2-fluoro-5-methylphenyl)urea] the “R (accumulation ratio calculated as DN AUC24 between D15 and D1)” value ([1]; 0.05 mg/kg once daily, mean ± SD, N 3) was 1.58 ± 0.34, the “R (accumulation ratio calculated as DN AUC24 between D15 and D1)” value ([1]; 0.10 mg/kg once daily, mean ± SD, N 5) was 1.46 ± 0.27 and the “R (accumulation ratio calculated as DN AUC24 between D15 and D1)” value ([1]; 0.20 mg/kg once daily, mean ± SD, N 3) was 1.56 ± 0.08. The “R (accumulation ratio calculated as DN AUC24 between D15 and D1)” value ([1]; 0.25 mg/kg once daily, mean ± SD, N 5) was 1.46 ± 0.23, the “dose proportionality of pharmacokinetics” value ([1]; 0.10–0.25 mg/kg, single and once-daily dosing) was “dose-proportional” and the “DN AUC24” value [1, 2] was 0.77 ± 0.18 µg·h/mL/mg. For the same molecule, the “DN C max” value [1, 2] was 0.051 ± 0.007 µg/mL/mg, the “DN AUC24” value [1, 3] was 0.49 ± 0.08 µg·h/mL/mg and the “DN C max” value [1, 3] was 0.036 ± 0.007 µg/mL/mg. The “DN AUC24” value [1, 4] was 0.50 ± 0.11 µg·h/mL/mg, the “DN C max” value [1, 4] was 0.034 ± 0.008 µg/mL/mg and the “DN AUC24” value [1, 5] was 0.33 ± 0.04 µg·h/mL/mg. For the same molecule, the “DN C max” value [1, 5] was 0.026 ± 0.004 µg/mL/mg, the “DN AUC24” value [1, 6] was 0.52 ± 0.02 µg·h/mL/mg and the “DN C max” value [1, 6] was 0.036 ± 0.003 µg/mL/mg. The “DN AUC24” value [1, 7] was 0.33 ± 0.01 µg·h/mL/mg, the “DN C max” value [1, 7] was 0.028 ± 0.007 µg/mL/mg and the “DN AUC24” value [1, 8] was 0.37 ± 0.06 µg·h/mL/mg. The “DN C max” value [1, 8] was 0.028 ± 0.002 µg/mL/mg, the “DN AUC24” value [1, 9] was 0.25 ± 0.02 µg·h/mL/mg and the “DN C max” value [1, 9] was 0.019 ± 0.004 µg/mL/mg. For the same molecule, the Cmax [1, 10] was 152 ± 36 ng/mL, the AUC [1, 10] was 1910 ± 380 ng·h/mL and the Tmax ([1]; human, plasma, 0.1 mg/kg, 0.10 mg/kg oral, single dose (C1D1), mean ± SD, N 6, read-out: T max) was 1.67 ± 0.52 h. It also gave a Cmax [1, 11] of 305 ± 70 ng/mL, an AUC [1, 11] of 3600 ± 430 ng·h/mL and a Tmax ([1]; human, plasma, 0.2 mg/kg, 0.20 mg/kg oral, single dose (C1D1), mean ± SD, N 3, read-out: T max) of 1.67 ± 0.57 h. The Cmax ([1]; human, plasma, oral, 0.1 mg/kg, 0.10 mg/kg once daily, multiple dose (C1D15), mean ± SD, N 5) was 186 ± 64 ng/mL, the Tmax ([1]; human, plasma, oral, 0.1 mg/kg, 0.10 mg/kg once daily, multiple dose (C1D15), mean ± SD, N 5, read-out: T max) was 2.2 ± 0.45 h and the AUC ([1]; human, plasma, oral, 0.1 mg/kg, 0.10 mg/kg once daily, multiple dose (C1D15), pre-dose concentration assumed equal to 24 h, mean ± SD, N 5) was 2820 ± 1030 ng·h/mL. It also gave a Cmax ([1]; human, plasma, oral, 0.2 mg/kg, 0.20 mg/kg once daily, multiple dose (C1D15), mean ± SD, N 3) of 390 ± 41 ng/mL, a Tmax ([1]; human, plasma, oral, 0.2 mg/kg, 0.20 mg/kg once daily, multiple dose (C1D15), mean ± SD, N 3, read-out: T max) of 2.33 ± 0.58 h and an AUC ([1]; human, plasma, oral, 0.2 mg/kg, 0.20 mg/kg once daily, multiple dose (C1D15), pre-dose concentration assumed equal to 24 h, mean ± SD, N 3) of 5630 ± 920 ng·h/mL. For the same molecule, the half-life ([1]; human, plasma, oral, after repeated daily dosing, associated with accumulation ratio 1.5, read-out: effective half-life (converted)) was 15 h, the Cmax ([1]; human, plasma, oral, 0.05 mg/kg once daily, multiple dose (C1D15), mean ± SD, N 3) was 128 ± 17 ng/mL and the Tmax ([1]; human, plasma, oral, 0.05 mg/kg once daily, multiple dose (C1D15), mean ± SD, N 3, read-out: T max) was 2.34 ± 0.57 h. The AUC ([1]; human, plasma, oral, 0.05 mg/kg once daily, multiple dose (C1D15), pre-dose concentration assumed equal to 24 h, mean ± SD, N 3) was 1920 ± 450 ng·h/mL, the Cmax ([1]; human, plasma, oral, 0.25 mg/kg once daily, multiple dose (C1D15), mean ± SD, N 5) was 418 ± 55 ng/mL and the Tmax ([1]; human, plasma, oral, 0.25 mg/kg once daily, multiple dose (C1D15), mean ± SD, N 5, read-out: T max) was 2.2 ± 0.45 h. The AUC ([1]; human, plasma, oral, 0.25 mg/kg once daily, multiple dose (C1D15), pre-dose concentration assumed equal to 24 h, mean ± SD, N 5) was 5460 ± 1160 ng·h/mL, the Cmax [1, 12] was 90 ± 18 ng/mL and the AUC [1, 12] was 1230 ± 210 ng·h/mL. The Tmax ([1]; human, plasma, 0.05 mg/kg oral, single dose (C1D1), mean ± SD, N 3, read-out: T max) was 1.65 ± 0.56 h, the Cmax [1, 13] was 305 ± 68 ng/mL and the AUC [1, 13] was 3780 ± 480 ng·h/mL. For the same molecule, the Tmax ([1]; human, plasma, 0.25 mg/kg oral, single dose (C1D1), mean ± SD, N 6, read-out: T max) was 2.33 ± 1.03 h, the Tmax ([1]; human, plasma, across all dose levels (0.05–0.25 mg/kg oral), read-out: average T max) was roughly 2 h and the ORR (solid tumors; 2 of 18 patients, RECIST) was 11.1%. The “patients with tumor reduction >5% by RECIST” value (solid tumors; 12/18 patients) was 67%, the “patients with SD for ≥12 weeks” value (solid tumors; 18 patients) was 11 and the “patients with confirmed PR” value (solid tumors; 18 patients, 0.20 mg/kg (breast cancer) and 0.25 mg/kg (lung cancer)) was “Two”. The “patients with reduction in summed tumor dimensions of ≥5%” value (solid tumors; of the 18 patients, cohorts 0.10, 0.20, and 0.25 mg/kg) was 12 and 12/18, the “median duration of response” value (solid tumors; range 2.8–3.5) was 3.2 months and the “median progression-free survival (PFS)” value (solid tumors; range 2.8–9.8) was 5.7 months. The “patients who continued linifanib with clinical benefit for ≥48 weeks” value (solid tumors; sarcoma, breast, lung, thymic cancer, best response SD) was “Four” and the “efficacious plasma exposure at steady state” value (HT1080 fibrosarcoma) was no less than 2700 ng·h/mL.
